Reference: PubChem BioAssay (NCI)
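Step 1: Grow cells in 96-well plates. Step 2: Expose to compound for 48 hours at 5 concentrations. Step 3: Interpolate endpoints linearly; if unreached, use highest concentration. GI50: concentration for 50% inhibition of growth. At the TGI there is no net growth.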 *1 amine or outer side, *2 acyl side, *3 side chain or, on linkers, in order; H or OH if unused. Where a SMILES comes first, the peptide text is derived from it. The star is where a group is joined. γGlu = O=C(O)[CH](CCC(=O)[*:2])N[*:1]; NHOH = ON*

Key:
Assay in all cases: DTP human tumour cell line panel, 48 h
[1] = system: 786-0 renal
[2] = system: BT-549 breast
[3] = system: COLO 205 colon
[4] = system: HL-60(TB) leukemia
[5] = system: MDA-MB-231 breast
[6] = system: MDA-MB-435
[7] = system: NCI/ADR-RES ovarian
[8] = system: PC-3 prostate
[9] = system: SK-MEL-2 melanoma
[10] = system: SN12C renal
[11] = system: T-47D breast
[12] = system: TK-10 renal

| SMILES | TGI [1] | TGI [2] | TGI [3] | TGI [4] | TGI [5] | TGI [6] | TGI [7] | TGI [8] | TGI [9] | TGI [10] | TGI [11] | TGI [12] | GI50 [3] |
| --- | --- | --- | --- | --- | --- | --- | --- | --- | --- | --- | --- | --- | --- |
| Fc1ccc(/C=C2\COCC3=C2NC(=S)NC3c2ccc(F)cc2)cc1 (stereo not given) | 34.4 µM | 53.5 µM | 35.1 µM | 35.4 µM | 33.9 µM | 33.3 µM | 40 µM | 33 µM | 28.6 µM | 33.3 µM | 90.1 µM | 45.5 µM | – |
| CCOC(=O)CCCN | > 100 µM | > 100 µM | > 100 µM | > 100 µM | > 100 µM | > 100 µM | > 100 µM | > 100 µM | > 100 µM | > 100 µM | > 100 µM | > 100 µM | – |
| CCCCCCc1cc2cc(C(=O)Nc3nc(C45CC6CC(CC(C6)C4)C5)cs3)c(=O)oc2cc1O | 25.6 µM | 61 µM | 32.6 µM | 19.8 µM | 22.3 µM | 31.4 µM | 80.5 µM | 34.3 µM | 31.4 µM | 28.7 µM | 38.1 µM | 34.2 µM | – |
| CCCCOc1ccc(/C=C/C2=[N+](CCO)CCO2)cc1 | > 100 µM | > 100 µM | 54.3 µM | 40.2 µM | > 100 µM | > 100 µM | > 100 µM | > 100 µM | > 100 µM | > 100 µM | 82.8 µM | > 100 µM | – |
| CCCCOC(=O)Nc1ccc(S(=O)(=O)Nc2c(Cl)cccc2Cl)cc1 | 79.5 µM | 60.7 µM | 34.3 µM | > 100 µM | 67.2 µM | 72.6 µM | 65.8 µM | > 100 µM | 66.8 µM | > 100 µM | 83.8 µM | 77.9 µM | – |
| COc1cc(O)c2c(=O)c3cccc(C)c3[nH]c2c1 | > 10 µM | > 10 µM | > 10 µM | > 10 µM | > 10 µM | > 10 µM | > 10 µM | > 10 µM | > 10 µM | > 10 µM | > 10 µM | > 10 µM | – |
| O=S(=O)(O)c1cc(O)c(N=NC2S(=O)(=O)OCCOS2(=O)=O)c2ccccc12 | > 100 µM | > 100 µM | > 100 µM | > 100 µM | > 100 µM | > 100 µM | > 100 µM | > 100 µM | > 100 µM | > 100 µM | > 100 µM | > 100 µM | – |
| Cc1c2ccccc2c(/C=N/NC(=O)CSCC(=O)N/N=C/c2c3ccccc3c(C)c3ccccc23)c2ccccc12 | > 52.8 µM | > 90.1 µM | > 100 µM | > 100 µM | > 75 µM | > 100 µM | > 100 µM | > 67.5 µM | > 100 µM | > 100 µM | > 82.4 µM | > 95.4 µM | > 100 µM |
| NC(CCC(=O)NC(CCC(=O)NO)C(=O)NCC(=O)O)C(=O)O (stereo not given) (γGlu-Glu(NHOH)-Gly-OH; configuration not given here) | > 100 µM | > 100 µM | > 100 µM | > 100 µM | > 100 µM | > 100 µM | > 100 µM | > 100 µM | > 100 µM | > 100 µM | > 100 µM | > 100 µM | – |
| O=[N+]([O-])C1=Cc2c(O)ccc(O)c2C2OC=CC12 (stereo not given) | 32.6 µM | 27.9 µM | > 63.8 µM | > 30.4 µM | 40.1 µM | 6.1 µM | 55.9 µM | 31 µM | 41 µM | 35 µM | > 71.9 µM | 30.3 µM | – |
| C[C@]12CCC(=O)C=C1CC[C@@H]1[C@@H]2CC[C@]2(C)C(=O)/C(=C/c3ccc([N+](=O)[O-])cc3)C[C@@H]12 | > 100 µM | > 100 µM | > 100 µM | > 100 µM | > 100 µM | > 100 µM | > 100 µM | > 100 µM | > 100 µM | > 100 µM | > 100 µM | > 100 µM | – |
| CC1=NN(c2ccccc2)C(=O)/C1=C1\SC(c2ccccc2)(c2ccccc2)c2ccccc21 | > 100 µM | > 100 µM | > 100 µM | > 100 µM | > 100 µM | > 100 µM | > 100 µM | > 100 µM | > 100 µM | > 100 µM | > 100 µM | > 100 µM | – |
| O=C1c2cccnc2S(=O)(=O)N1c1ccc(Br)cc1 | > 100 µM | > 100 µM | > 100 µM | 28.1 µM | > 100 µM | > 100 µM | > 100 µM | > 100 µM | > 100 µM | > 100 µM | > 100 µM | > 100 µM | – |
| CN(C(=O)Cc1cc(Cl)c(Cl)cc1NC(=O)CCCN)[C@H]1CCCC[C@@H]1N1CCCC1 | 36.2 µM | > 100 µM | 35 µM | 52.8 µM | 77.4 µM | 31.6 µM | > 100 µM | > 100 µM | 40.5 µM | > 100 µM | > 100 µM | > 100 µM | – |
| O=C(Nc1ccc(Cl)cc1)c1cc(S(=O)(=O)Nc2nc3ncccc3[nH]2)c(SSc2cc(Cl)c(C(=O)Nc3ccc(Cl)cc3)cc2S(=O)(=O)Nc2nc3ncccc3[nH]2)cc1Cl | > 100 µM | > 100 µM | > 100 µM | > 100 µM | > 100 µM | > 100 µM | > 100 µM | > 100 µM | > 100 µM | > 100 µM | > 100 µM | > 100 µM | – |
| CN(C)CCNc1c(O)c2c(c(O)c1Cl)C(=O)C=CC2=O | 4.27 µM | 3.17 µM | 3.47 µM | 4.33 µM | 2.72 µM | 3.68 µM | 7.08 µM | 17.8 µM | 3.95 µM | 3.41 µM | 4.38 µM | 5.68 µM | – |
| CCN(CC)C1=Nc2ccccc2-n2ccnc2C1 | > 100 µM | > 100 µM | > 100 µM | > 100 µM | > 100 µM | > 100 µM | > 100 µM | > 100 µM | > 100 µM | > 100 µM | > 100 µM | > 100 µM | – |
| COc1cc2ncnc(Nc3cccc(Br)c3)c2cc1OC | 4.8 µM | > 50.8 µM | 20.8 µM | > 75.2 µM | 21.5 µM | 49.7 µM | 23.9 µM | > 37.2 µM | 12.9 µM | > 52.4 µM | 48 µM | 13.5 µM | – |
| N#C/C=C(/NC(=O)Nc1ccccc1)N1CCCC1 | > 100 µM | > 100 µM | > 100 µM | > 100 µM | > 100 µM | > 100 µM | > 61.5 µM | > 54.5 µM | > 52.6 µM | > 100 µM | > 100 µM | > 55.4 µM | – |
| Cc1ccc(S(=O)(=O)N(CC(O)COc2ccccc2)c2c(F)c(F)c(F)c(F)c2F)cc1 (stereo not given) | 38.8 µM | 28.7 µM | 29.8 µM | 42.2 µM | 30.7 µM | 34.5 µM | 35.1 µM | 29.2 µM | 30 µM | 37.7 µM | 52.4 µM | 71.1 µM | – |
| CN(C)CC1CCC/C(=C\c2ccc(Cl)c(Cl)c2)C1=O (stereo not given) | 3.42 µM | 5.01 µM | 7.27 µM | 4.06 µM | 10.9 µM | 18.1 µM | 22.8 µM | > 33.5 µM | 16.8 µM | 8.79 µM | 5.71 µM | 8.19 µM | – |
| O=C1C(NS(=O)(=O)c2ccccc2)=C(n2ccnc2)C(=O)c2ccccc21 | > 100 µM | > 100 µM | > 100 µM | > 100 µM | > 100 µM | > 100 µM | > 100 µM | > 100 µM | > 100 µM | > 100 µM | > 100 µM | > 100 µM | – |
| Cc1ccc2[nH]c3c(c2c1)C1CCC(C(C)(C)C)CC1C1C(=O)N(c2ccc(Oc4ccccc4)cc2)C(=O)C31 (stereo not given) | 28.3 µM | 64.1 µM | > 100 µM | 8.09 µM | > 100 µM | > 100 µM | > 100 µM | > 100 µM | > 100 µM | 37 µM | > 68.2 µM | 84.4 µM | – |
| CCCCCCCCCCCCCOCCOCCOCCCCC(O)CCCCCCCCCC1=C[C@H](C)OC1=O (stereo not given in full) | 49.2 µM | 27.9 µM | 52.3 µM | 16 µM | 50.5 µM | 57.1 µM | 41.4 µM | 71.7 µM | 63 µM | 71.4 µM | > 100 µM | 22.5 µM | – |
| O=c1[nH]c2c(C(F)(F)F)c(Cl)c(-c3ccccc3)nc2o1 | > 100 µM | 60.3 µM | 28.1 µM | 13.7 µM | 65.2 µM | > 100 µM | 67.2 µM | 76.2 µM | 52.7 µM | 32.4 µM | 90.9 µM | > 100 µM | – |
| COc1nc2ncc([C@@H](OC(C)=O)[C@@H](COC(C)=O)OC(C)=O)nc2c(=O)n1C | > 100 µM | > 100 µM | > 100 µM | 87.8 µM | > 100 µM | > 100 µM | > 100 µM | > 100 µM | > 100 µM | > 100 µM | > 100 µM | > 100 µM | – |
| CC1=C[C@H](C[C@]2(C)c3c(c4c(C)cccc4oc3=O)O[C@@H]2C)OC1=O | 50 µM | 74.7 µM | > 100 µM | 52.5 µM | > 100 µM | > 100 µM | > 100 µM | > 100 µM | > 100 µM | > 100 µM | > 100 µM | > 100 µM | – |
